Test results as given in US10183914B2 (BAYER CROPSCIENCE AKTIENGESELLSCHAFT, priority 2014, dated 2019).

Legend:
Echinochloa crus-galli [1] = test: Pre-emergence herbicidal effect; assay type: in vivo; conditions: 3 weeks
In short: (§1)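 Seeds sown in sandy loam in wood-fiber pots and covered with soil; compounds formulated as WP or EC applied to the soil surface as aqueous suspension or emulsion at 600 to 800 L/ha water with 0.2% wetting agent. Greenhouse growth; visual damage scored after 3 weeks versus untreated controls (0–100%).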

Polygonum convolvulus = test: Pre-emergence herbicidal effect; assay type: in vivo; conditions: 3 weeks
In short: as §1

Cyperus esculentus = test: Pre-emergence herbicidal effect; assay type: in vivo; conditions: 3 weeks
In short: as §1

Setaria viridis [2] = test: Pre-emergence herbicidal effect; assay type: in vivo; conditions: 3 weeks
In short: as §1

Amaranthus retroflexus = test: Pre-emergence herbicidal effect; assay type: in vivo; conditions: 3 weeks
In short: as §1

Alopecurus myosuroides [3] = test: Pre-emergence herbicidal effect; assay type: in vivo; conditions: 3 weeks
In short: as §1

Veronica persica = test: Pre-emergence herbicidal effect; assay type: in vivo; conditions: 3 weeks
In short: as §1

Avena fatua [4] = test: Pre-emergence herbicidal effect; assay type: in vivo; conditions: 3 weeks
In short: as §1

Viola tricolor = test: Pre-emergence herbicidal effect; assay type: in vivo; conditions: 3 weeks
In short: as §1

Matricaria inodora = test: Pre-emergence herbicidal effect; assay type: in vivo; conditions: 3 weeks
In short: as §1

Stellaria media = test: Pre-emergence herbicidal effect; assay type: in vivo; conditions: 3 weeks
In short: as §1

Lolium multiflorum [5] = test: Pre-emergence herbicidal effect; assay type: in vivo; conditions: 3 weeks
In short: as §1

Zea mays [6] = test: Post-emergence herbicidal effect and crop plant compatibility; assay type: in vivo; conditions: 80 g/ha, visual scoring after about 3 weeks
In short: (§2)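 Greenhouse-grown plants at the one-leaf stage (2–3 weeks after sowing) were sprayed with WP or EC formulations in water at 600–800 L/ha plus 0.2% wetting agent. About 3 weeks later, efficacy was scored visually against untreated controls: 100% = plants dead, 0% = like control.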

[7] = test system: Triticum aestivum (spring); test: as above; assay type: in vivo; conditions: visual scoring after about 3 weeks
In short: as §2

Oryza sativa [8] = test: as above; assay type: in vivo; conditions: visual scoring after about 3 weeks
In short: as §2

Echinochloa crus-galli [9] = test: Post-emergence herbicidal effect; assay type: in vivo; conditions: visual scoring after about 3 weeks
In short: as §2

Setaria viridis [10] = test: Post-emergence herbicidal effect; assay type: in vivo; conditions: 320 g/ha (dose by row order of upper half), scoring after about 3 weeks
In short: as §2

Alopecurus myosuroides [11] = test: Post-emergence herbicidal effect; assay type: in vivo; conditions: 320 g/ha, visual scoring after about 3 weeks
In short: as §2

Ipomoea purpurea = test: Post-emergence herbicidal effect; assay type: in vivo; conditions: scoring after about 3 weeks
In short: as §2

Zea mays [12] = test: Pre-emergence herbicidal effect and crop plant compatibility; assay type: in vivo; conditions: 80 g/ha, 3 weeks
In short: as §1

[13] = test system: Triticum aestivum (spring); test: as above; assay type: in vivo; conditions: 3 weeks
In short: as §1

Abutilon theophrasti = test: Pre-emergence herbicidal effect; assay type: in vivo; conditions: 320 g/ha, 3 weeks
In short: as §1

[14] = logp (HCOOH), physicochemical characterization
Avena fatua [15] = test: Post-emergence herbicidal effect; assay type: in vivo; conditions: 320 g/ha, visual scoring after about 3 weeks
In short: as §2

Lolium multiflorum [16] = test: Post-emergence herbicidal effect; assay type: in vivo; conditions: visual scoring after about 3 weeks
In short: as §2

Oryza sativa [17] = test: Pre-emergence herbicidal effect and crop plant compatibility; assay type: in vivo; conditions: 80 g/ha, 3 weeks
In short: as §1

[18] = 320 g/ha (dose by row order of upper half)
[19] = 80 g/ha (dose by row order of upper half)

| Structure (SMILES) | ECHCG herbicidal activity in percent (Echinochloa crus-galli [1]; 80 g/ha) [%] | ECHCG herbicidal activity in percent (Echinochloa crus-galli [1]; 320 g/ha) [%] | POLCO herbicidal activity in percent (Polygonum convolvulus; 80 g/ha) [%] | POLCO herbicidal activity in percent (Polygonum convolvulus; 320 g/ha) [%] | SETVI herbicidal activity in percent (Setaria viridis [2]; 80 g/ha) [%] | AMARE herbicidal activity in percent (Amaranthus retroflexus; 80 g/ha) [%] | AMARE herbicidal activity in percent (Amaranthus retroflexus; 320 g/ha) [%] | ALOMY herbicidal activity in percent (Alopecurus myosuroides [3]; 320 g/ha) [%] | VERPE herbicidal activity in percent (Veronica persica; 80 g/ha) [%] | VERPE herbicidal activity in percent (Veronica persica; 320 g/ha) [%] | AVEFA herbicidal activity in percent (Avena fatua [4]; 320 g/ha) [%] | VIOTR herbicidal activity in percent (Viola tricolor; 80 g/ha) [%] | VIOTR herbicidal activity in percent (Viola tricolor; 320 g/ha) [%] | MATIN herbicidal activity in percent (Matricaria inodora; 80 g/ha) [%] | MATIN herbicidal activity in percent (Matricaria inodora; 320 g/ha) [%] | STEME herbicidal activity in percent (Stellaria media; 80 g/ha) [%] | STEME herbicidal activity in percent (Stellaria media; 320 g/ha) [%] | LOLMU herbicidal activity in percent (Lolium multiflorum [5]; 320 g/ha) [%] | post-emergence efficacy ZEAMX (Zea mays [6]) [%] | post-emergence efficacy TRZAS ([7]; 80 g/ha) [%] | other results |
| --- | --- | --- | --- | --- | --- | --- | --- | --- | --- | --- | --- | --- | --- | --- | --- | --- | --- | --- | --- | --- | --- |
| O=C1CCCc2nc(N[C@@H]3CCCc4c(F)cccc43)ncc21 [2.13] | 100 | 100 | 100 | 100 | 100 | 100 | 100 | 100 | 100 | 100 | 90 | 100 | 100 | 100 | 100 | 100 | 100 | 100 | 10 | 10 | CYPES herbicidal activity in percent (Cyperus esculentus; 80 g/ha): 100%; CYPES herbicidal activity in percent (Cyperus esculentus; 320 g/ha): 100%; post-emergence efficacy TRZAS ([7]; 320 g/ha): 20%; post-emergence efficacy ORYSA (Oryza sativa [8]; 80 g/ha): 0%; post-emergence efficacy ORYSA (Oryza sativa [8]; 320 g/ha): 0%; post-emergence efficacy ECHCG (Echinochloa crus-galli [9]; 80 g/ha): 90%; post-emergence efficacy ECHCG (Echinochloa crus-galli [9]; 320 g/ha): 100%; post-emergence efficacy SETVI (Setaria viridis [10]): 100%; post-emergence efficacy ALOMY (Alopecurus myosuroides [11]): 90%; post-emergence efficacy PHBPU (Ipomoea purpurea; [18]): 100%; ZEAMX herbicidal activity in percent (Zea mays [12]): 0%; TRZAS herbicidal activity in percent ([13]; 80 g/ha): 0%; TRZAS herbicidal activity in percent ([13]; 320 g/ha): 10% |
| Cc1ccc2c(c1)[C@H](Nc1ncc3c(n1)CCCC3=O)[C@@H](C)C2 [2.43] | 100 | 100 | 100 | 100 | 90 | 100 | 100 | 100 | 100 | 100 | 100 | 100 | 100 | 100 | 100 | 100 | 100 | 100 | 0 | 10 | ABUTH herbicidal activity in percent (Abutilon theophrasti): 100%; CYPES herbicidal activity in percent (Cyperus esculentus; 320 g/ha): 80%; SETVI herbicidal activity in percent (Setaria viridis [2]; 320 g/ha): 100%; ALOMY herbicidal activity in percent (Alopecurus myosuroides [3]; 80 g/ha): 100%; LOLMU herbicidal activity in percent (Lolium multiflorum [5]; 80 g/ha): 100%; post-emergence efficacy TRZAS ([7]; 320 g/ha): 10%; post-emergence efficacy ORYSA (Oryza sativa [8]; 80 g/ha): 10%; logp (HCOOH) [14]: solid; logp (HCOOH): 3.45; 1H-NMR (CDCl3, 400 MHZ, δ in ppm): 1.25 (t, 3H, CH3);; post-emergence efficacy ECHCG (Echinochloa crus-galli [9]; 80 g/ha): 90%; post-emergence efficacy ECHCG (Echinochloa crus-galli [9]; 320 g/ha): 90%; post-emergence efficacy SETVI (Setaria viridis [10]): 80%; post-emergence efficacy AVEFA (Avena fatua [15]): 100%; post-emergence efficacy PHBPU (Ipomoea purpurea; [19]): 80%; post-emergence efficacy LOLMU (Lolium multiflorum [16]; 80 g/ha): 80%; post-emergence efficacy LOLMU (Lolium multiflorum [16]; 320 g/ha): 100%; ZEAMX herbicidal activity in percent (Zea mays [12]): 20%; TRZAS herbicidal activity in percent ([13]; 80 g/ha): 0% |
| O=C1CCCc2nc(N[C@@H]3CCCc4ccccc43)ncc21 [2.23] | 80 | 100 | 100 | 100 | 100 | 100 | 100 | 100 | 100 | 100 | 90 | 100 | 100 | 100 | 100 | 100 | 100 | 100 | 0 | 0 | CYPES herbicidal activity in percent (Cyperus esculentus; 320 g/ha): 90%; SETVI herbicidal activity in percent (Setaria viridis [2]; 320 g/ha): 100%; ALOMY herbicidal activity in percent (Alopecurus myosuroides [3]; 80 g/ha): 80%; LOLMU herbicidal activity in percent (Lolium multiflorum [5]; 80 g/ha): 80%; post-emergence efficacy TRZAS ([7]; 320 g/ha): 0%; post-emergence efficacy ORYSA (Oryza sativa [8]; 80 g/ha): 20%; post-emergence efficacy ORYSA (Oryza sativa [8]; 320 g/ha): 20%; post-emergence efficacy ECHCG (Echinochloa crus-galli [9]; 320 g/ha): 90%; post-emergence efficacy AVEFA (Avena fatua [15]): 100%; post-emergence efficacy PHBPU (Ipomoea purpurea; [18]): 80%; post-emergence efficacy LOLMU (Lolium multiflorum [16]; 320 g/ha): 100%; ZEAMX herbicidal activity in percent (Zea mays [12]): 0%; TRZAS herbicidal activity in percent ([13]; 80 g/ha): 0%; ORYSA herbicidal activity in percent (Oryza sativa [17]): 5% |
| Cc1ccc2c(c1)[C@H](Nc1ncc3c(n1)CC(C)CC3=O)[C@@H](C)C2 (stereo partly shown) [2.44] | 90 | 100 | 90 | 100 | 100 | 100 | 100 | 100 | 100 | 100 | 80 | 100 | 100 | 90 | 100 | 100 | 100 | 100 | 10 | 0 | SETVI herbicidal activity in percent (Setaria viridis [2]; 320 g/ha): 100%; ALOMY herbicidal activity in percent (Alopecurus myosuroides [3]; 80 g/ha): 80%; AVEFA herbicidal activity in percent (Avena fatua [4]; 80 g/ha): 0%; LOLMU herbicidal activity in percent (Lolium multiflorum [5]; 80 g/ha): 100%; post-emergence efficacy TRZAS ([7]; 320 g/ha): 0%; post-emergence efficacy ORYSA (Oryza sativa [8]; 80 g/ha): 0%; post-emergence efficacy ORYSA (Oryza sativa [8]; 320 g/ha): 0%; logp (HCOOH) [14]: oily; logp (HCOOH): 3.90;; post-emergence efficacy ECHCG (Echinochloa crus-galli [9]; 80 g/ha): 100%; post-emergence efficacy ECHCG (Echinochloa crus-galli [9]; 320 g/ha): 100%; post-emergence efficacy AVEFA (Avena fatua [15]): 90%; post-emergence efficacy PHBPU (Ipomoea purpurea; [19]): 100%; post-emergence efficacy PHBPU (Ipomoea purpurea; [18]): 100%; ZEAMX herbicidal activity in percent (Zea mays [12]): 10%; ORYSA herbicidal activity in percent (Oryza sativa [17]): 20% |
